Test results reported in publication PMC8699473, “An Easily Expandable Multi-Drug LC-MS Assay for the Simultaneous Quantification of 57 Oral Antitumor Drugs in Human Plasma” (Cancers, 2021).

Assay: Long-term stability in spiked pooled human plasma

SMILES | Long-term stability, 1 month, -20°C Accuracy [%] (validation standard 2xLLOV) | Long-term stability, 1 month, -80°C Accuracy [%] (validation standard 2xLLOV) | Long-term stability, 2 month, -80°C Accuracy [%] (validation standard 2xLLOV) | Long-term stability, 3 month, -20°C Accuracy [%] (validation standard 2xLLOV) | Long-term stability, 3 month, -80°C Accuracy [%] (validation standard 2xLLOV) | Long-term stability, 6 weeks, 4°C, without daylight Accuracy [%] (validation standard 2xLLOV) | Long-term stability, 1 month, -20°C Accuracy [%] (validation standard LLOV) | Long-term stability, 1 month, -80°C Accuracy [%] (validation standard LLOV) | Long-term stability, 2 month, -20°C Accuracy [%] (validation standard LLOV) | Long-term stability, 2 month, -80°C Accuracy [%] (validation standard LLOV) | Long-term stability, 3 month, -20°C Accuracy [%] (validation standard LLOV) | Long-term stability, 3 month, -80°C Accuracy [%] (validation standard LLOV) | Long-term stability, 6 weeks, 4°C, without daylight Accuracy [%] (validation standard LLOV) | Long-term stability, 1 month, -20°C Accuracy [%] (validation standard MOV) | Long-term stability, 1 month, -80°C Accuracy [%] (validation standard MOV) | Long-term stability, 2 month, -20°C Accuracy [%] (validation standard MOV) | Long-term stability, 2 month, -80°C Accuracy [%] (validation standard MOV) | Long-term stability, 3 month, -20°C Accuracy [%] (validation standard MOV) | Long-term stability, 3 month, -80°C Accuracy [%] (validation standard MOV) | Long-term stability, 6 weeks, 4°C, without daylight Accuracy [%] (validation standard MOV) | also measured
C[C@]12CC[C@H](O)CC1=CC[C@@H]1[C@@H]2CC[C@]2(C)C(c3cccnc3)=CC[C@@H]12 [Abiraterone] | 96.2 | 93.5 | 100.1 | 97.2 | 97.9 | 101.6 | 96.5 | 93.2 | 97.0 | 105.8 | 101.7 | 106.0 | 110.7 | 95.8 | 93.5 | 101.2 | 102.9 | 101.8 | 100.6 | 106.4 | Long-term stability, 2 month, -20°C Accuracy [%] (validation standard 2xLLOV): 101.0%; Long-term stability, 1 month, -20°C Accuracy [%] (validation standard ULOV): 98.3%; Long-term stability, 1 month, -80°C Accuracy [%] (validation standard ULOV): 93.2%; Long-term stability, 2 month, -20°C Accuracy [%] (validation standard ULOV): 102.5%; Long-term stability, 2 month, -80°C Accuracy [%] (validation standard ULOV): 103.2%; Long-term stability, 3 month, -20°C Accuracy [%] (validation standard ULOV): 99.7%; Long-term stability, 3 month, -80°C Accuracy [%] (validation standard ULOV): 100.6%; Long-term stability, 6 weeks, 4°C, without daylight Accuracy [%] (validation standard ULOV): 102.8%
CN(C)C/C=C/C(=O)Nc1cc2c(Nc3ccc(F)c(Cl)c3)ncnc2cc1O[C@H]1CCOC1 [Afatinib] | 79.7 | 90.7 | 92.5 | 76.9 | 94.1 | 26.7 | 70.0 | 75.4 | 68.4 | 85.8 | 68.4 | 90.0 | 2.9 | 87.9 | 93.1 | 84.4 | 96.0 | 78.2 | 96.4 | 44.2 | Long-term stability, 2 month, -20°C Accuracy [%] (validation standard 2xLLOV): 72.1%; Long-term stability, 1 month, -20°C Accuracy [%] (validation standard ULOV): 86.5%; Long-term stability, 1 month, -80°C Accuracy [%] (validation standard ULOV): 91.2%; Long-term stability, 2 month, -20°C Accuracy [%] (validation standard ULOV): 88.3%; Long-term stability, 2 month, -80°C Accuracy [%] (validation standard ULOV): 96.0%; Long-term stability, 3 month, -20°C Accuracy [%] (validation standard ULOV): 82.8%; Long-term stability, 3 month, -80°C Accuracy [%] (validation standard ULOV): 92.1%; Long-term stability, 6 weeks, 4°C, without daylight Accuracy [%] (validation standard ULOV): 37.3%
O=C1CN2Cc3c(ccc(Cl)c3Cl)N=C2N1 [Anagrelide] | 99.8 | 105.6 | 118.5 | 110.2 | 114.9 | 74.6 | 103.9 | 121.5 | 128.7 | 141.5 | 101.8 | 118.8 | 33.5 | 95.0 | 97.0 | 101.3 | 98.7 | 95.7 | 95.1 | 103.7 | Long-term stability, 2 month, -20°C Accuracy [%] (validation standard 2xLLOV): 121.4%; Long-term stability, 1 month, -20°C Accuracy [%] (validation standard ULOV): 95.4%; Long-term stability, 1 month, -80°C Accuracy [%] (validation standard ULOV): 90.8%; Long-term stability, 2 month, -20°C Accuracy [%] (validation standard ULOV): 94.5%; Long-term stability, 2 month, -80°C Accuracy [%] (validation standard ULOV): 99.2%; Long-term stability, 3 month, -20°C Accuracy [%] (validation standard ULOV): 94.9%; Long-term stability, 3 month, -80°C Accuracy [%] (validation standard ULOV): 94.7%; Long-term stability, 6 weeks, 4°C, without daylight Accuracy [%] (validation standard ULOV): 97.1%
Cn1cnc2c(F)c(Nc3ccc(Br)cc3F)c(C(=O)NOCCO)cc21 [Binimetinib] | 94.8 | 97.4 | 106.4 | 99.5 | 104.4 | 95.3 | 103.4 | 106.3 | 116.3 | 124.3 | 105.4 | 104.6 | 104.1 | 92.3 | 94.4 | 95.9 | 96.6 | 97.9 | 98.7 | 109.9 | Long-term stability, 2 month, -20°C Accuracy [%] (validation standard 2xLLOV): 105.7%; Long-term stability, 1 month, -20°C Accuracy [%] (validation standard ULOV): 99.6%; Long-term stability, 1 month, -80°C Accuracy [%] (validation standard ULOV): 97.2%; Long-term stability, 2 month, -20°C Accuracy [%] (validation standard ULOV): 99.2%; Long-term stability, 2 month, -80°C Accuracy [%] (validation standard ULOV): 101.1%; Long-term stability, 3 month, -20°C Accuracy [%] (validation standard ULOV): 98.9%; Long-term stability, 3 month, -80°C Accuracy [%] (validation standard ULOV): 102.6%; Long-term stability, 6 weeks, 4°C, without daylight Accuracy [%] (validation standard ULOV): 99.7%
COc1cc2nccc(Oc3ccc(NC(=O)C4(C(=O)Nc5ccc(F)cc5)CC4)cc3)c2cc1OC [Cabozantinib] | 98.4 | 92.5 | 100.3 | 92.5 | 94.6 | 96.8 | 91.9 | 89.4 | 97.7 | 100.2 | 90.4 | 91.8 | 94.1 | 97.7 | 97.3 | 101.6 | 102.9 | 100.0 | 98.9 | 108.5 | Long-term stability, 1 month, -20°C Accuracy [%] (validation standard ULOV): 95.7%; Long-term stability, 1 month, -80°C Accuracy [%] (validation standard ULOV): 93.1%; Long-term stability, 2 month, -20°C Accuracy [%] (validation standard ULOV): 99.6%; Long-term stability, 2 month, -80°C Accuracy [%] (validation standard ULOV): 100.3%; Long-term stability, 3 month, -20°C Accuracy [%] (validation standard ULOV): 96.3%; Long-term stability, 3 month, -80°C Accuracy [%] (validation standard ULOV): 93.1%; Long-term stability, 6 weeks, 4°C, without daylight Accuracy [%] (validation standard ULOV): 101.8%
O=C(c1ccc(F)c(F)c1Nc1ccc(I)cc1F)N1CC(O)([C@@H]2CCCCN2)C1 [Cobimetinib] | 100.8 | 93.9 | 103.4 | 99.0 | 97.6 | 94.8 | 101.1 | 99.0 | 99.0 | 97.9 | 101.3 | 100.3 | 94.5 | 98.9 | 96.8 | 100.8 | 103.3 | 99.2 | 98.4 | 108.3 | Long-term stability, 2 month, -20°C Accuracy [%] (validation standard 2xLLOV): 98.0%; Long-term stability, 1 month, -20°C Accuracy [%] (validation standard ULOV): 100.6%; Long-term stability, 1 month, -80°C Accuracy [%] (validation standard ULOV): 97.3%; Long-term stability, 2 month, -20°C Accuracy [%] (validation standard ULOV): 104.5%; Long-term stability, 2 month, -80°C Accuracy [%] (validation standard ULOV): 103.6%; Long-term stability, 3 month, -20°C Accuracy [%] (validation standard ULOV): 100.6%; Long-term stability, 3 month, -80°C Accuracy [%] (validation standard ULOV): 98.3%; Long-term stability, 6 weeks, 4°C, without daylight Accuracy [%] (validation standard ULOV): 102.4%
C[C@@H](Oc1cc(-c2cnn(C3CCNCC3)c2)cnc1N)c1c(Cl)ccc(F)c1Cl [Crizotinib] | 87.5 | 85.4 | 93.8 | 87.5 | 90.2 | 68.4 | 77.1 | 75.4 | 74.2 | 78.9 | 72.6 | 73.9 | 58.2 | 90.2 | 89.3 | 96.3 | 96.2 | 94.9 | 95.1 | 93.4 | Long-term stability, 2 month, -20°C Accuracy [%] (validation standard 2xLLOV): 90.8%; Long-term stability, 1 month, -20°C Accuracy [%] (validation standard ULOV): 84.4%; Long-term stability, 1 month, -80°C Accuracy [%] (validation standard ULOV): 80.1%; Long-term stability, 2 month, -20°C Accuracy [%] (validation standard ULOV): 88.8%; Long-term stability, 2 month, -80°C Accuracy [%] (validation standard ULOV): 89.2%; Long-term stability, 3 month, -20°C Accuracy [%] (validation standard ULOV): 88.4%; Long-term stability, 3 month, -80°C Accuracy [%] (validation standard ULOV): 89.7%; Long-term stability, 6 weeks, 4°C, without daylight Accuracy [%] (validation standard ULOV): 83.8%
CC(C)(C)c1nc(-c2cccc(NS(=O)(=O)c3c(F)cccc3F)c2F)c(-c2ccnc(N)n2)s1 [Dabrafenib] | 101.2 | 93.1 | 101.3 | 96.6 | 101.7 | 107.2 | 101.0 | 96.1 | 99.0 | 97.9 | 97.1 | 96.6 | 102.4 | 96.1 | 92.3 | 97.8 | 98.9 | 100.3 | 98.0 | 107.2 | Long-term stability, 2 month, -20°C Accuracy [%] (validation standard 2xLLOV): 98.6%; Long-term stability, 1 month, -20°C Accuracy [%] (validation standard ULOV): 97.0%; Long-term stability, 1 month, -80°C Accuracy [%] (validation standard ULOV): 92.2%; Long-term stability, 2 month, -20°C Accuracy [%] (validation standard ULOV): 97.4%; Long-term stability, 2 month, -80°C Accuracy [%] (validation standard ULOV): 98.0%; Long-term stability, 3 month, -20°C Accuracy [%] (validation standard ULOV): 96.3%; Long-term stability, 3 month, -80°C Accuracy [%] (validation standard ULOV): 98.6%; Long-term stability, 6 weeks, 4°C, without daylight Accuracy [%] (validation standard ULOV): 100.6%
